Experimental data taken from PMC7413516, “Antidepressant-like activity and safety profile evaluation of 1H-imidazo[2,1-f]purine-2,4(3H,8H)-dione derivatives as 5-HT1A receptor partial agonists” (PLoS ONE, 2020).
Values joined by “and” are separate entries in the source; they are usually repeats but may differ in a detail not shown here. Equal values may be shown once.

Columns and labels:
[1] = target: serotonergic 5-HT7 receptor (5-HT7R); design: method as in PMID 27353547; conditions: ref [8]; cited from earlier work
mice = assay: Forced swim test (FST) in mice; format: in vivo, Swiss albino mice; conditions: for reduction of immobility time in FST: acute, 60 min before test
From the text: The investigated compounds AZ-853 (8-(4-(4-(2-fluorophenyl)piperazin-1-yl)butyl)-1,3-dimethyl-1H-imidazo[2,1-f]purine-2,4(3H,8H)-dione and AZ-861 (1,3-dimethyl-8-(4-(4-(3-(trifluoromethyl)phenyl)piperazin-1-yl)butyl)-1H-imidazo[2,1-f]purine-2,4(3H,8H)-dione) were synthesised in the Department of Medicinal Chemistry, Faculty of Pharmacy, Jagiellonian University, and their synthesis was described earlier. AZ-853 and AZ-861 were suspended in 1% aqueous solution of Tween 80, and WAY-100635 (Sigma, Germany) was dissolved in 0.9% saline. In acute experiments, the selected compounds AZ-853 (0.156–2.5 mg/kg) and AZ-861 (0.625–2.5 mg/kg) were injected i.p. once 60 min before tests, whereas WAY-100635 (0.3 mg/kg) was administered subcutaneously (s.c.) 45 min before the test. […] In chronic experiments, AZ-853 and AZ-861 were administered i.p. once a day (between 9:00 AM and 10:00 AM) for 16 consecutive days at the minimum active doses selected from FST experiment, i.e. 0.625 and 1.25 mg/kg, respectively. All compounds were administered to mice at a volume of 10 ml/kg and to rats at a volume of 2 ml/kg. The control groups received 1% aqueous solution of Tween 80.
The experiment was carried out according to the method of Porsolt et al.. Swiss albino mice were individually placed in a glass cylinder (25 cm high; 10 cm in diameter) containing 10 cm of water maintained at 23–25°C, and were left there for 6 min. The total duration of immobility was recorded during the last 4 min of a 6-min. A mouse was regarded as immobile when it remained floating on the water, making only small movements to keep its head above it.
The Swiss albino mice were used in the experiment. AZ-853 and AZ-861 were injected once daily for 16 consecutive days. On the 1st and 15th day the administration of the compounds, 18-h spontaneous animal activity was registered (see below). FST, as described earlier, was performed on the 14th day just before the next treatment. To ensure that the effects observed in FST are not the result of increased motility of animals, on the 13th day, just before the next administration, the locomotor activity was measured as described earlier, from 2 to 6 min after test start, i.e. in the period identical to the duration of FST. Blood and organ collection was performed on the 17th day at 24 h after the last dose and fasting.

human 5-HT1AR = target: T1, human 5-HT1AR (Homo sapiens, UniProt P08908); assay: β-Arrestin recruitment (Tango LiveBLAzer, HTR1A-bla U2OS cells)
T1 sequence (P08908 1-422): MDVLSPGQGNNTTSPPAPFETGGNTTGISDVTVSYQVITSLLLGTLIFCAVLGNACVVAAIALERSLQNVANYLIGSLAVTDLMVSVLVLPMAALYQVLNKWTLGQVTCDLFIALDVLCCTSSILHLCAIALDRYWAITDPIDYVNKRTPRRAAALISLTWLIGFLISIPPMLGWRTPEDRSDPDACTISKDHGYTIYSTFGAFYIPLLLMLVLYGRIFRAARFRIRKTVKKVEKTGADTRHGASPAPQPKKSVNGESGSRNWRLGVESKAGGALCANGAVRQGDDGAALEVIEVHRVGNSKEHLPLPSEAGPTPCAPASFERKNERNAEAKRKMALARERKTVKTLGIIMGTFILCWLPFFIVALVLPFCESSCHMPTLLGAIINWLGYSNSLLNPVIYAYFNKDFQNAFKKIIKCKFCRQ
Protocol: Cells were cultured according to manufacturer’s instruction. […] This parental cell line stably expresses a beta-arrestin/TEV protease fusion protein and the beta-lactamase reporter gene under the control of a UAS response element. The Tango™ HTR1A-bla U2OS cells have been functionally validated for a response to 5-CT. This cell line tested negative for mycoplasma.
The HTR1A-bla U2OS receptor cells containing the human 5-HT1AR linked to a TEV protease site and a Gal4-VP16 transcription factor were tested for recruitment of β-arrestin. […] The recruitment of β-arrestin were tested using the Tango LiveBLAzer assay kit according to the manufacturer’s instruction (Life Technologies). The assay plate was measured in FLUOstar Optima, a multifunction plate reader (BMG Lab Tech).

normotensive rats = assay: Blood pressure measurement in normotensive anesthetized rats; format: in vivo, Wistar rats; conditions: for DBP Mean / SBP Mean / DBP (individual animals) / SBP (individual animals): 10 mg/kg i.p.
Protocol: Male Wistar normotensive rats were anesthetized with thiopental (50–75 mg/kg, i.p.). The right carotid artery was cannulated with a polyethylene tube filled with heparin in saline to facilitate pressure measurement using the Datamax apparatus (Columbus Instruments, Columbus, Ohio, USA). The studied compounds were administered after a 15-min stabilization period.

[2] = test system: adrenergic α1 receptors (α1R); assay: Pressor response to methoxamine in anesthetized normotensive rats (adrenolytic activity); format: in vivo, Wistar rats; conditions: 10 mg/kg, 30 min prior to methoxamine 150 μg/kg
Protocol: In a separate series of experiments on anesthetized normotensive rats, the effect of studied compounds on the pressor response to methoxamine (Sigma Aldrich) (150 μg/kg) was investigated. Pressor responses to methoxamine injected intravenously were measured before and 30 min after the administration of the tested compound. The amplitudes of the pressure values were measured in 4 independent experiments.

[3] = time 0 min (baseline), 10 mg/kg

## Cn1c(=O)c2c(nc3n(CCCCN4CCN(c5ccccc5F)CC4)ccn23)n(C)c1=O [AZ-853, 8-(4-(4-(2-fluorophenyl)piperazin-1-yl)butyl)-1,3-dimethyl-1H-imidazo[2,1-f]purine-2,4(3H,8H)-dione]
[1]
  Ki: 508 nM
mice; 0.625 mg/kg i.p.
  reduction of immobility time in FST: approximately 50%
mice; 1.25 mg/kg i.p.
  reduction of immobility time in FST: ~58%
mice; 2.5 mg/kg i.p.
  reduction of immobility time in FST: ~45%
mice; compound 1.25 mg/kg i.p. + WAY-100635 0.3 mg/kg s.c.
  effect of WAY-100635 on the antidepressant-like action of the compound in FST: completely abolished
mice; i.p. once daily for 13 consecutive days, AZ-853 0.625 mg/kg, AZ-861 1.25 mg/kg
  effect on immobility time in FST after repeated administration: decreased the immobility time
Human 5-HT1AR
  EC50: 4.17 nM
Human 5-HT1AR; U2OS, read-out: Emax (%) ± SEM, agonist mode
  Emax: 93 ± 1.7%
Human 5-HT1AR; β-arrestin recruitment
  increased potency as compared to 5-HT: 95 fold
Normotensive rats; 10 mg/kg
  effect on systolic blood pressure: did not significantly affect the systolic blood pressure
  reduction of diastolic blood pressure in relation to the baseline value: 13–15%
Normotensive rats; 5 min
  DBP Mean: 88.3 mmHg
  SBP Mean: 131.2 mmHg
Normotensive rats; 5 min, 10 mg/kg
  DBP (individual animals): 85 mmHg and 88 mmHg and 83 mmHg and 95 mmHg and 91 mmHg
  SBP (individual animals): 143 mmHg and 116 mmHg and 120 mmHg and 123 mmHg and 163 mmHg and 122 mmHg
Normotensive rats; 10 min
  DBP Mean: 84.8 mmHg
  SBP Mean: 130.0 mmHg
Normotensive rats; 10 min, 10 mg/kg
  DBP (individual animals): 82 mmHg and 81 mmHg and 85 mmHg and 91 mmHg and 84 mmHg and 86 mmHg
  SBP (individual animals): 144 mmHg and 112 mmHg and 127 mmHg and 119 mmHg and 162 mmHg and 116 mmHg
Normotensive rats; 15 min
  DBP Mean: 83.2 mmHg
  SBP Mean: 128.5 mmHg
Normotensive rats; 15 min, 10 mg/kg
  DBP (individual animals): 80 mmHg and 81 mmHg and 84 mmHg and 88 mmHg and 82 mmHg
  SBP (individual animals): 140 mmHg and 113 mmHg and 130 mmHg and 116 mmHg and 160 mmHg and 112 mmHg
Normotensive rats; 20 min
  DBP Mean: 83.0 mmHg
  SBP Mean: 125.5 mmHg
Normotensive rats; 20 min, 10 mg/kg
  DBP (individual animals): 75 mmHg and 76 mmHg and 85 mmHg and 88 mmHg and 86 mmHg
  SBP (individual animals): 132 mmHg and 110 mmHg and 128 mmHg and 113 mmHg and 161 mmHg
Normotensive rats; 30 min
  DBP Mean: 83.2 mmHg
  SBP Mean: 122.8 mmHg
Normotensive rats; 30 min, 10 mg/kg
  DBP (individual animals): 80 mmHg and 76 mmHg and 84 mmHg and 87 mmHg and 86 mmHg and 85 mmHg
  SBP (individual animals): 136 mmHg and 109 mmHg and 126 mmHg and 110 mmHg and 160 mmHg and 112 mmHg
Normotensive rats; 40 min
  DBP Mean: 82.5 mmHg
  SBP Mean: 126.2 mmHg
Normotensive rats; 40 min, 10 mg/kg
  DBP (individual animals): 80 mmHg and 76 mmHg and 86 mmHg and 88 mmHg and 83 mmHg
  SBP (individual animals): 138 mmHg and 110 mmHg and 125 mmHg and 111 mmHg and 159 mmHg
Normotensive rats; 50 min
  DBP Mean: 83.2 mmHg
  SBP Mean: 125.7 mmHg
Normotensive rats; 50 min, 10 mg/kg
  DBP (individual animals): 83 mmHg and 82 mmHg and 84 mmHg and 86 mmHg and 97 mmHg and 85 mmHg
  SBP (individual animals): 139 mmHg and 113 mmHg and 119 mmHg and 167 mmHg and 111 mmHg
Normotensive rats; 60 min
  DBP Mean: 86.2 mmHg
  SBP Mean: 127.0 mmHg
Normotensive rats; 60 min, 10 mg/kg
  DBP (individual animals): 84 mmHg and 80 mmHg and 83 mmHg and 86 mmHg and 82 mmHg
  SBP (individual animals): 136 mmHg and 111 mmHg and 116 mmHg and 110 mmHg and 157 mmHg and 107 mmHg
Normotensive rats; 70 min
  DBP Mean: 84.7 mmHg
  SBP Mean: 125.3 mmHg
Normotensive rats; 70 min, 10 mg/kg
  DBP (individual animals): 84 mmHg and 85 mmHg and 89 mmHg and 82 mmHg
  SBP (individual animals): 138 mmHg and 116 mmHg and 120 mmHg and 111 mmHg and 160 mmHg and 107 mmHg
Normotensive rats; 80 min
  DBP Mean: 83.2 mmHg
  SBP Mean: 123.2 mmHg
Normotensive rats; 80 min, 10 mg/kg
  DBP (individual animals): 85 mmHg and 80 mmHg and 82 mmHg and 89 mmHg and 81 mmHg
  SBP (individual animals): 137 mmHg and 112 mmHg and 115 mmHg and 108 mmHg and 160 mmHg and 107 mmHg
Normotensive rats; time 0 min (baseline)
  DBP Mean: 97.2 mmHg
  SBP Mean: 131.0 mmHg
Normotensive rats; [3]
  DBP (individual animals): 97 mmHg and 98 mmHg and 91 mmHg and 84 mmHg and 100 mmHg and 113 mmHg
  SBP (individual animals): 129 mmHg and 140 mmHg and 120 mmHg and 119 mmHg and 122 mmHg and 156 mmHg
[2]
  mean reduction of blood pressure vs. methoxamine alone: 95.5 mmHg
